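1) Cells in 96-well plates. 2) Compound, 48 h, 5 concentrations. 3) Linear interpolation between surrounding doses. 4) Unreached endpoint = highest concentration. Abbreviation: GI50, concentration required for 50% inhibition of growth. TGI: concentration producing complete growth inhibition.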
How the values were obtained:
Assay in all cases: DTP human tumour cell line panel, 48 h
NCI-H226 lung = tested on: NCI-H226 lung
HCT-15 colon = tested on: HCT-15 colon
NCI-H460 lung = tested on: NCI-H460 lung
SNB-19 CNS = tested on: SNB-19 CNS
BT-549 breast = tested on: BT-549 breast
NCI/ADR-RES ovarian = tested on: NCI/ADR-RES ovarian
MDA-MB-435 = tested on: MDA-MB-435
COLO 205 colon = tested on: COLO 205 colon
A498 renal = tested on: A498 renal
MALME-3M melanoma = tested on: MALME-3M melanoma
SN12C renal = tested on: SN12C renal
HOP-92 NSCLC = tested on: HOP-92 NSCLC
ACHN renal = tested on: ACHN renal
U251 CNS = tested on: U251 CNS
OVCAR-3 ovarian = tested on: OVCAR-3 ovarian
MCF7 breast = tested on: MCF7 breast
SW-620 colon = tested on: SW-620 colon
SF-539 CNS = tested on: SF-539 CNS
EKVX NSCLC = tested on: EKVX NSCLC
PC-3 prostate = tested on: PC-3 prostate
OVCAR-8 ovarian = tested on: OVCAR-8 ovarian
NCI-H522 lung = tested on: NCI-H522 lung
HCT-116 colon = tested on: HCT-116 colon
A549 NSCLC = tested on: A549 NSCLC
SK-MEL-2 melanoma = tested on: SK-MEL-2 melanoma
786-0 renal = tested on: 786-0 renal
UO-31 renal = tested on: UO-31 renal
NCI-H23 lung = tested on: NCI-H23 lung
HS 578T breast = tested on: HS 578T breast
IGROV1 ovarian = tested on: IGROV1 ovarian
OVCAR-4 ovarian = tested on: OVCAR-4 ovarian
CCRF-CEM leukemia = tested on: CCRF-CEM leukemia
SK-MEL-5 melanoma = tested on: SK-MEL-5 melanoma
SF-295 CNS = tested on: SF-295 CNS
SNB-75 CNS = tested on: SNB-75 CNS
DU-145 prostate = tested on: DU-145 prostate
OVCAR-5 ovarian = tested on: OVCAR-5 ovarian
SK-MEL-28 melanoma = tested on: SK-MEL-28 melanoma
T-47D breast = tested on: T-47D breast
MDA-MB-231 breast = tested on: MDA-MB-231 breast
MOLT-4 leukemia = tested on: MOLT-4 leukemia
HCC-2998 colon = tested on: HCC-2998 colon
M14 melanoma = tested on: M14 melanoma
HOP-62 NSCLC = tested on: HOP-62 NSCLC
TK-10 renal = tested on: TK-10 renal
CAKI-1 renal = tested on: CAKI-1 renal
LOX IMVI melanoma = tested on: LOX IMVI melanoma
KM12 colon = tested on: KM12 colon
RXF 393 renal = tested on: RXF 393 renal
SF-268 CNS = tested on: SF-268 CNS
SK-OV-3 ovarian = tested on: SK-OV-3 ovarian
RPMI-8226 leukemia = tested on: RPMI-8226 leukemia
UACC-257 melanoma = tested on: UACC-257 melanoma
HT29 colon = tested on: HT29 colon
UACC-62 melanoma = tested on: UACC-62 melanoma

`COc1cc2c(cc1OCc1ccccc1)N=CC1C[C@@H](O)CN1C2=O` (stereo not given in full) was tested, and the GI50 (NCI-H226 lung) was 23.6 µM, the TGI (NCI-H226 lung) was > 100 µM and the GI50 (HCT-15 colon) was 15.2 µM. For the same compound, the TGI (HCT-15 colon) was > 82.1 µM, the GI50 (NCI-H460 lung) was 10.7 µM and the TGI (NCI-H460 lung) was > 100 µM. The GI50 (SNB-19 CNS) was 6.52 µM, the TGI (SNB-19 CNS) was > 100 µM and the GI50 (BT-549 breast) was 2.47 µM. For the same compound, the TGI (BT-549 breast) was 9.54 µM, the GI50 (NCI/ADR-RES ovarian) was 14.7 µM and the TGI (NCI/ADR-RES ovarian) was > 56.7 µM. For the same compound, the GI50 (MDA-MB-435) was 3.88 µM, the TGI (MDA-MB-435) was 14.7 µM and the GI50 (COLO 205 colon) was 3.77 µM. The TGI (COLO 205 colon) was > 30.9 µM, the GI50 (A498 renal) was 2.06 µM and the TGI (A498 renal) was 5.25 µM. The GI50 (MALME-3M melanoma) was 9.08 µM, the TGI (MALME-3M melanoma) was 26 µM and the GI50 (SN12C renal) was 5.77 µM. For the same compound, the TGI (SN12C renal) was 24.2 µM, the GI50 (HOP-92 NSCLC) was 3.99 µM and the TGI (HOP-92 NSCLC) was 39 µM. The GI50 (ACHN renal) was 5.83 µM, the TGI (ACHN renal) was 50 µM and the GI50 (U251 CNS) was 2.86 µM. The TGI (U251 CNS) was > 100 µM, the GI50 (OVCAR-3 ovarian) was 2.64 µM and the TGI (OVCAR-3 ovarian) was 18.2 µM. The GI50 (MCF7 breast) was 5.06 µM, the TGI (MCF7 breast) was > 100 µM and the GI50 (SW-620 colon) was 3.16 µM. The TGI (SW-620 colon) was 31.3 µM, the GI50 (SF-539 CNS) was 2.11 µM and the TGI (SF-539 CNS) was 6.76 µM. It also gave a GI50 (EKVX NSCLC) of 24.2 µM, a TGI (EKVX NSCLC) of 56.4 µM and a GI50 (PC-3 prostate) of 23.1 µM. For the same compound, the TGI (PC-3 prostate) was > 100 µM, the GI50 (OVCAR-8 ovarian) was 8.35 µM and the TGI (OVCAR-8 ovarian) was > 74.8 µM. The GI50 (NCI-H522 lung) was 1.4 µM, the TGI (NCI-H522 lung) was 7.43 µM and the GI50 (HCT-116 colon) was 9.77 µM. For the same compound, the TGI (HCT-116 colon) was 42.2 µM, the GI50 (A549 NSCLC) was 19.2 µM and the TGI (A549 NSCLC) was > 100 µM. The GI50 (SK-MEL-2 melanoma) was 3.08 µM, the TGI (SK-MEL-2 melanoma) was 9.19 µM and the GI50 (786-0 renal) was 2.26 µM. It also gave a TGI (786-0 renal) of 7.68 µM, a GI50 (UO-31 renal) of 3.52 µM and a TGI (UO-31 renal) of 19.2 µM. The GI50 (NCI-H23 lung) was 7.83 µM, the TGI (NCI-H23 lung) was 25.3 µM and the GI50 (HS 578T breast) was 4.84 µM. The TGI (HS 578T breast) was 18.6 µM, the GI50 (IGROV1 ovarian) was 6.89 µM and the TGI (IGROV1 ovarian) was > 60.7 µM. For the same compound, the GI50 (OVCAR-4 ovarian) was 12.4 µM, the TGI (OVCAR-4 ovarian) was > 73.5 µM and the GI50 (CCRF-CEM leukemia) was 1.79 µM. It also gave a TGI (CCRF-CEM leukemia) of 12.2 µM, a GI50 (SK-MEL-5 melanoma) of 2.53 µM and a TGI (SK-MEL-5 melanoma) of 5.38 µM. The GI50 (SF-295 CNS) was 4.62 µM, the TGI (SF-295 CNS) was > 71.5 µM and the GI50 (SNB-75 CNS) was 9.08 µM. It also gave a TGI (SNB-75 CNS) of 47 µM, a GI50 (DU-145 prostate) of 4.04 µM and a TGI (DU-145 prostate) of 72.1 µM. For the same compound, the GI50 (OVCAR-5 ovarian) was 3.37 µM, the TGI (OVCAR-5 ovarian) was > 25.3 µM and the GI50 (SK-MEL-28 melanoma) was 8.23 µM. The TGI (SK-MEL-28 melanoma) was 28.4 µM, the GI50 (T-47D breast) was 1.95 µM and the TGI (T-47D breast) was 7.09 µM. For the same compound, the GI50 (MDA-MB-231 breast) was 3.01 µM, the TGI (MDA-MB-231 breast) was 16.9 µM and the GI50 (MOLT-4 leukemia) was 2.01 µM. It also gave a TGI (MOLT-4 leukemia) of 5.51 µM, a GI50 (HCC-2998 colon) of 17.1 µM and a TGI (HCC-2998 colon) of 37.1 µM. The GI50 (M14 melanoma) was 4.71 µM, the TGI (M14 melanoma) was 19.5 µM and the GI50 (HOP-62 NSCLC) was 2.4 µM. The TGI (HOP-62 NSCLC) was 9.52 µM, the GI50 (TK-10 renal) was 2.37 µM and the TGI (TK-10 renal) was 12.7 µM. It also gave a GI50 (CAKI-1 renal) of 1.24 µM, a TGI (CAKI-1 renal) of 6.78 µM and a GI50 (LOX IMVI melanoma) of 2.37 µM. The TGI (LOX IMVI melanoma) was 6.5 µM, the GI50 (KM12 colon) was 4.04 µM and the TGI (KM12 colon) was 32 µM. It also gave a GI50 (RXF 393 renal) of 1.7 µM, a TGI (RXF 393 renal) of 4.95 µM and a GI50 (SF-268 CNS) of 3.41 µM. For the same compound, the TGI (SF-268 CNS) was 26.7 µM, the GI50 (SK-OV-3 ovarian) was 17.5 µM and the TGI (SK-OV-3 ovarian) was > 71.5 µM. For the same compound, the GI50 (RPMI-8226 leukemia) was 2.57 µM, the TGI (RPMI-8226 leukemia) was > 28 µM and the GI50 (UACC-257 melanoma) was 19.2 µM. The TGI (UACC-257 melanoma) was > 59.6 µM, the GI50 (HT29 colon) was 7.22 µM and the TGI (HT29 colon) was > 100 µM. The GI50 (UACC-62 melanoma) was 0.824 µM and the TGI (UACC-62 melanoma) was 17.1 µM.
